# Patent US20040102422A1, “Cancer therapy” (The University of Bristol, priority 2001, published 2004)
# Legend:
# [1] = tested on: HeLa cells; assay: MTT assay of HeLa cell viability / proliferation; format: cell-based; conditions: for cell proliferation (number of viable cells, MTT): HeLa cultured in media containing the single agent, read at 24 hour intervals, FIG. 1(d), 1(e)
# Description: (§1) In all of the following experiments, HeLa cells were maintained in Minimal Essential Medium (MEM: Sigma) supplemented with 10% Foetal Bovine Serum (FBS: Sigma) and penicillin (100,000 U/litre) and streptomycin (100 mg/litre) at 37° C. in 5% CO2. In some cases, supplements (all obtained from Sigma, with the exception of 3-hydroxytamoxifen which was obtained from Research Biochemicals International (RBI)) were added to the media at the concentrations specifically indicated for each separate experiment.
# Where MTT assays were carried out, this involved removal of the media, followed by incubation of the cells in 50 μg/ml MTT (3-(4,5 dimethylthiazol 2-yl) 2,5 diphenyl tetrazolium bromide) for 2 hours at 37° C. The blue formazan crystals were extracted and dissolved in DMSO (dimethylsulfoxide), and the absorbance measured at 560 nm wavelength using an ELISA plate reader (Mosmann, T. (1983) Journal of Immunological Methods 65, 55-631983).
# To examine the effects of RU486 and progesterone on cell proliferation, HeLa cells were cultured in media containing RU486 and/or progesterone and at 24 hour intervals the number of viable cells was determined using MTT assays (Mosmann, T. (1983) supra). […] The presence of RU486 has little effect on cell proliferation (FIG. 1(e)).
# [2] = tested on: HeLa cells; assay: Apoptosis of HeLa cells transiently transfected with pWEB-E2 (HPV 16 E2) or empty pWEB, scored by GFP and Hoechst stain; format: cell-based
# Description: as §1
# Prior to transient transfection, cells were seeded at 3×10^5 cells per well onto coverslips in 6 well plates and incubated overnight to obtain a sub-confluent culture. The liposome based reagent Tfx-20 (Promega) was used at a 3:1 liposome:DNA ratio in 1 ml serum-free media per transfection, according to the manufacturer's instructions. After 30 hours, the coverslips were washed in phosphate buffered saline (PBS) and the cells fixed in 4% paraformaldehyde/PBS at 22° C. for 30 minutes. Following further washes in PBS, the cells were stained with bisbenzimide (Hoechst No. 33258: Sigma) for 30 minutes. Finally the coverslips were washed in PBS and mounted onto microscope slides in 10 μl MOWIOL (Calbiochem).
# Where used, fluorescence microscopy was carried out using a Leica DM IRBE inverted epi-fluorescent microscope with FITC and DAPI filter sets and a 20× air objective (Leica).
# The plasmid pWEB-E2 expresses the HPV 16 E2 protein (Webster, K. et al., (2000) supra). Increasing amounts of pWEB-E2 and the empty pWEB vector were transiently transfected into HeLa cells, an HPV 18-transformed cell cervical carcinoma cell line, along with a plasmid (pCMX-GFP3- supplied by Dr Jeremy Tavaré of the Department of Biochemistry, University of Bristol, UK) that expresses the green fluorescent protein (GFP). After 30 hours the cells were fixed and then stained with bisbenzimide (Hoechst stain). Individual cells were scored as untransfected or transfected on the basis of GFP expression and then examined for chromatin condensation and membrane blebbing using Hoechst stain and GFP, respectively (Webster, K. et al., (2000) spra). 100 transfected cells were counted and the experiment was repeated four times.
smiles,measurement,setting,value
CC(=O)[C@H]1CC[C@H]2[C@@H]3CCC4=CC(=O)CC[C@]4(C)[C@H]3CC[C@]12C [progesterone],"cell proliferation (number of viable cells, MTT)",[1],decrease in cell proliferation
same,levels of E2-induced apoptosis,"[2]; HeLa cultured in 2 μM progesterone for one week prior to transfection with pWEB-E2, FIG. 1(b)",significant increase
same,level of apoptosis in E2 expression plasmid transfected population,"[2]; HeLa cultured in 2 μM progesterone one week before transfection and incubated in 2 μM progesterone, no RU486, FIG. 1(c)",high levels of apoptosis
same,level of apoptosis in cells transfected with the empty pWEB vector,"[2]; HeLa cultured in progesterone for one week prior to transfection with pWEB, FIG. 1(b)",around 7%
"CC#C[C@]1(O)CC[C@H]2[C@@H]3CCC4=CC(=O)CCC4=C3[C@@H](c3ccc(N(C)C)cc3)C[C@@]21C [RU486, Mifepristone]","cell proliferation (number of viable cells, MTT)",[1],little effect
same,levels of apoptosis,"[2]; 2 μM progesterone plus 100 nM and 200 nM RU486, compared with 50 nM RU486, FIG. 1(c)",raised compared to those at 50 nM RU486
same,level of E2-induced apoptosis,"[2]; pWEB-E2 transfected HeLa, 2 μM progesterone plus 50 nM RU486, FIG. 1(c)",reduced almost to the background levels
same,level of apoptosis in the untransfected cells,"[2]; progesterone plus 200 nM RU486, FIG. 1(c)",slight increase
C[C@]12CC[C@@H]3c4ccc(O)cc4CC[C@H]3[C@@H]1C[C@@H](O)C2=O [16α-hydroxyestrone],level of E2-induced apoptosis,"[2]; pWEB-E2 transfected HeLa incubated 24 hours in media with various concentrations of the hormone, FIG. 2(a), 2(b)",increases the level of E2-induced apoptosis
"CC/C(=C(/c1ccc(OCCN(C)C)cc1)c1cccc(O)c1)c1ccccc1 [3-OHT, 3-hydroxytamoxifen]",proliferation of HeLa cells (MTT),"[1]; 3-OHT alone or 3-OHT with estrogen, over time, FIG. 2(e), 2(f)",no effect
same,percentage of apoptotic cells in the pWEB-transfected population,"[2]; empty vector pWEB, presence of estrogen and 3-OHT, FIG. 2(c)",around 5%
same,percentage of apoptotic cells,"[2]; pWEB-E2 transfected HeLa, 400 nM estrogen plus 400 nM 3-OHT, FIG. 2(c)",around 10%
